PubChem BioAssay AID328 (DTP/NCI, 2004)
Several values for one entry are separate records, joined by “and”; a condition that tells them apart may be missing. Identical values can stand only once. Inconclusive results and toxic doses are left out. Rule for the calls: active = survival T/C of 150% or more; inactive = T/C below 125% in these data.

System: BDF1 mice, P388 leukemia ip, median survival T/C
Assay: NCI In Vivo Anticancer Drug Screen. Data for tumor model P388 Leukemia (intraperitoneal) in B6D2F1 (BDF1) mice
Conditions: endpoint: median survival time, higher = longer survival
Method in brief: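 Survival ratio, drug arm over vehicle arm, in mice with a transplanted tumour.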

[1] = dose: 50.0 mg/kg/injection, schedule: Q04DX003 (ip), vehicle: saline
[2] = dose: 100.0 mg/kg/injection, schedule: Q04DX003 (ip), vehicle: saline
[3] = dose: 200.0 mg/kg/injection, schedule: Q04DX003 (ip), vehicle: saline
[4] = dose: 12.5 mg/kg/injection, schedule: Q01DX009 (ip), vehicle: saline
[5] = dose: 50.0 mg/kg/injection, schedule: Q01DX009 (ip), vehicle: saline with Tween-80
[6] = dose: 100.0 mg/kg/injection, schedule: Q01DX009 (ip), vehicle: saline with Tween-80
[7] = dose: 200.0 mg/kg/injection, schedule: Q01DX009 (ip), vehicle: saline with Tween-80
[8] = dose: 50.0 mg/kg/injection, schedule: Q01DX009 (ip), vehicle: Klucel (hydroxypropylcellulose) (HPC)
[9] = dose: 100.0 mg/kg/injection, schedule: Q01DX009 (ip), vehicle: Klucel (hydroxypropylcellulose) (HPC)
[10] = dose: 100.0 mg/kg/injection, schedule: Q04DX003 (ip), vehicle: saline with Tween-80
[11] = dose: 200.0 mg/kg/injection, schedule: Q01DX009 (ip), vehicle: Klucel (hydroxypropylcellulose) (HPC)
[12] = dose: 200.0 mg/kg/injection, schedule: Q04DX003 (ip), vehicle: saline with Tween-80
[13] = dose: 400.0 mg/kg/injection, schedule: Q04DX003 (ip), vehicle: saline with Tween-80
[14] = dose: 400.0 mg/kg/injection, schedule: Q01DX009 (ip), vehicle: saline with Tween-80

Measured: T/C

COc1cc2c(cc1OC)C1CCc3cc(OC)c(OC)cc3C1N=C2 (stereo unspecified)
inactive: dose: 20.0 mg/kg/injection, schedule: Q01DX009 (ip), vehicle: saline 95 % of control | dose: 40.0 mg/kg/injection, schedule: Q01DX009 (ip), vehicle: saline 95 % of control | dose: 80.0 mg/kg/injection, schedule: Q01DX009 (ip), vehicle: saline 100 % of control | dose: 120.0 mg/kg/injection, schedule: Q01DX009 (ip), vehicle: saline 100 % of control | dose: 240.0 mg/kg/injection, schedule: Q01DX009 (ip), vehicle: saline 95 % of control

O=C(O)c1nc2nc(Cl)c(Cl)nc2[nH]1
inactive: [1] 111 % of control | [2] 97 % of control | [3] 116 % of control

Nc1c(O)nc[nH]c1=O
inactive: dose: 1.56 mg/kg/injection, schedule: Q01DX009 (ip), vehicle: saline 95 % of control | dose: 3.13 mg/kg/injection, schedule: Q01DX009 (ip), vehicle: saline 109 % of control and 100 % of control | dose: 3.13 mg/kg/injection, schedule: Q04DX003 (ip), vehicle: saline 95 % of control | dose: 6.25 mg/kg/injection, schedule: Q01DX009 (ip), vehicle: saline 100 % of control | dose: 6.25 mg/kg/injection, schedule: Q04DX003 (ip), vehicle: saline 86 % of control and 100 % of control | [4] 100 % of control | dose: 12.5 mg/kg/injection, schedule: Q04DX003 (ip), vehicle: saline 100 % of control

Cc1nc(NN)c(C(N)=O)nc1C
inactive: [4] 97 % of control | dose: 25.0 mg/kg/injection, schedule: Q01DX009 (ip), vehicle: saline 89 % of control | dose: 25.0 mg/kg/injection, schedule: Q04DX003 (ip), vehicle: saline 106 % of control | dose: 50.0 mg/kg/injection, schedule: Q01DX009 (ip), vehicle: saline 93 % of control and 120 % of control | [1] 102 % of control

CCCCNC(=O)n1nnc2ccccc21
inactive: [5] 89 % of control | [6] 106 % of control | [7] 106 % of control

CC(=O)Nc1cccc(Cl)c1C
inactive: dose: 8.25 mg/kg/injection, schedule: Q01DX009 (ip), vehicle: saline with Tween-80 100 % of control | dose: 12.4 mg/kg/injection, schedule: Q01DX009 (ip), vehicle: saline with Tween-80 104 % of control | dose: 18.7 mg/kg/injection, schedule: Q01DX009 (ip), vehicle: saline with Tween-80 100 % of control | dose: 28.2 mg/kg/injection, schedule: Q01DX009 (ip), vehicle: saline with Tween-80 100 % of control | [8] 100 % of control | [5] 100 % of control | [9] 100 % of control | [10] 95 % of control | [11] 86 % of control | [12] 100 % of control | [13] 100 % of control

CCOC(=O)C1=S=C(SC)N(C)C1=O
inactive: [5] 106 % of control and 115 % of control | [6] 103 % of control and 116 % of control

CN=C1C=C(NC)C(F)(F)C1(F)F
inactive: dose: 6.25 mg/kg/injection, schedule: Q01DX009 (ip), vehicle: saline with Tween-80 95 % of control | dose: 12.5 mg/kg/injection, schedule: Q01DX009 (ip), vehicle: saline with Tween-80 100 % of control | dose: 12.5 mg/kg/injection, schedule: Q04DX003 (ip), vehicle: Klucel (hydroxypropylcellulose) (HPC) 100 % of control | dose: 25.0 mg/kg/injection, schedule: Q01DX009 (ip), vehicle: saline with Tween-80 100 % of control | dose: 25.0 mg/kg/injection, schedule: Q04DX003 (ip), vehicle: Klucel (hydroxypropylcellulose) (HPC) 100 % of control

Cc1c(NC(=O)Nc2ccccc2F)c(=O)n(-c2ccccc2)n1C
inactive: [8] 100 % of control | [9] 90 % of control | [11] 95 % of control

Cc1ncc(CO)c(CO)c1O
inactive: [2] 122 % of control | [3] 113 % of control | dose: 400.0 mg/kg/injection, schedule: Q04DX003 (ip), vehicle: saline 95 % of control

c1ccc(-c2nnc3oc(-c4ccco4)nn23)cc1
inactive: [6] 91 % of control | [10] 90 % of control | [7] 108 % of control | [12] 100 % of control | [14] 100 % of control | [13] 95 % of control

Cc1ccc(C(=O)CCCCl)c(C)c1
inactive: [10] 109 % of control | [12] 109 % of control | [13] 118 % of control

CCCCc1ccc(N2C(N)=NC(N)=NC2(C)C)cc1
inactive: dose: 6.25 mg/kg/injection, schedule: Q01DX005 (ip), vehicle: Klucel (hydroxypropylcellulose) (HPC) 111 % of control | dose: 12.5 mg/kg/injection, schedule: Q01DX005 (ip), vehicle: Klucel (hydroxypropylcellulose) (HPC) 110 % of control

C[N+](C)(C)CCOC(=O)c1ccccc1
inactive: [6] 109 % of control | [7] 117 % of control | [14] 102 % of control

NNC(=O)C1CCC(=O)O1 (stereo unspecified)
inactive: dose: 75.0 mg/kg/injection, schedule: Q01DX009 (ip), vehicle: saline with Tween-80 98 % of control | dose: 150.0 mg/kg/injection, schedule: Q01DX009 (ip), vehicle: saline with Tween-80 91 % of control | dose: 300.0 mg/kg/injection, schedule: Q01DX009 (ip), vehicle: saline with Tween-80 100 % of control

OC(CC1CCCCN1)c1cc2c(Cl)cc(Cl)cc2c2cc(C(F)(F)F)ccc12 (stereo unspecified)
inactive: [5] 114 % of control

C=C(Br)CNCCCCCC
inactive: dose: 4.68 mg/kg/injection, schedule: Q04DX003 (ip), vehicle: Klucel (hydroxypropylcellulose) (HPC) 95 % of control | dose: 9.37 mg/kg/injection, schedule: Q04DX003 (ip), vehicle: Klucel (hydroxypropylcellulose) (HPC) 100 % of control | dose: 12.5 mg/kg/injection, schedule: Q01DX009 (ip), vehicle: Klucel (hydroxypropylcellulose) (HPC) 109 % of control | dose: 18.75 mg/kg/injection, schedule: Q04DX003 (ip), vehicle: Klucel (hydroxypropylcellulose) (HPC) 108 % of control | dose: 25.0 mg/kg/injection, schedule: Q01DX009 (ip), vehicle: Klucel (hydroxypropylcellulose) (HPC) 118 % of control | dose: 37.5 mg/kg/injection, schedule: Q04DX003 (ip), vehicle: Klucel (hydroxypropylcellulose) (HPC) 86 % of control | [8] 113 % of control

Cc1ccc(C(CC(=O)O)CC(=O)O)c(O)c1
inactive: dose: 100.0 mg/kg/injection, schedule: Q01DX009 (ip), vehicle: gum acacia 100 % of control | dose: 100.0 mg/kg/injection, schedule: Q04DX003 (ip), vehicle: gum acacia 111 % of control | dose: 200.0 mg/kg/injection, schedule: Q01DX009 (ip), vehicle: gum acacia 103 % of control | dose: 200.0 mg/kg/injection, schedule: Q04DX003 (ip), vehicle: gum acacia 103 % of control | dose: 400.0 mg/kg/injection, schedule: Q01DX009 (ip), vehicle: gum acacia 89 % of control | dose: 400.0 mg/kg/injection, schedule: Q04DX003 (ip), vehicle: gum acacia 88 % of control

Clc1nnc(Nc2ccccc2)c2ccccc12
inactive: dose: 100.0 mg/kg/injection, schedule: Q01DX001 (ip), vehicle: Klucel (hydroxypropylcellulose) (HPC) 100 % of control | dose: 200.0 mg/kg/injection, schedule: Q01DX001 (ip), vehicle: Klucel (hydroxypropylcellulose) (HPC) 91 % of control | dose: 400.0 mg/kg/injection, schedule: Q01DX001 (ip), vehicle: Klucel (hydroxypropylcellulose) (HPC) 104 % of control
